Data reported in ChEMBL document CHEMBL5537193, “Multitargeting HDAC Inhibitors Containing a RAS/RAF Protein Interfering Unit” (J Med Chem, 2024).

Columns and labels:
[1] = Tmax in Sprague-Dawley rat at 15 mg/kg, ip measured after 24 hrs by LC-MS/MS analysis; type: ADME, organism-based; settings: in vivo
[2] = system: HT-29; test: Antitumor activity against human HT-29 cells xenografted in BALB/c nude mouse assessed as tumor growth inhibition administered intraperitoneally once a day for 24 days; type: functional, cell-based; settings: route ip, time 24.0 day

SMILES: COc1cc(OC)c(/C=C/S(=O)(=O)Cc2ccc(OC)c(NCC(=O)NO)c2)c(OC)c1
- Tmax [1]: 30 min
- TGI [2]: Dose-Dependent Effect
